Test: The TLC plates are then dried, exposed to a phosphorimager screen (Storm, Amersham), and quantitated. For each compound, kinase activity is measured at 10-12 inhibitor concentrations representing two-fold dilutions from the highest concentration tested (typically, 200 μM).

Row | IC50 | SMILES
1 | in the range around 5.5 µM | C[C@H](NC(=O)c1c(N)nn2cccnc12)c1cc2cccc(Cl)c2c(=O)n1CCNS(C)(=O)=O
2 | in the range around 5.5 µM | CNS(=O)(=O)CCn1c([C@H](C)NC(=O)c2c(N)nn3cccnc23)cc2cccc(Cl)c2c1=O
3 | in the range around 5.5 µM | C[C@H](NC(=O)c1c(N)nn2cccnc12)c1cc2cccc(Cl)c2c(=O)n1CCc1c[nH]cn1
4 | in the range around 5.5 µM | C[C@H](NC(=O)c1c(N)nn2cccnc12)c1cc2cccc(Cl)c2c(=O)n1CCc1nnn(C)n1
5 | in the range around 0.75 µM | C[C@H](NC(=O)c1c(N)nn2cccnc12)c1cc2cccc(Cl)c2c(=O)n1CCS(=O)(=O)N(C)C
6 | in the range around 5.5 µM | Cc1cccc(-n2c([C@H](C)NC(=O)c3c(N)nn4cccnc34)cc3cccc(Cl)c3c2=O)c1
7 | in the range around 5.5 µM | Cc1ccccc1-n1c([C@H](C)NC(=O)c2c(N)nn3cccnc23)cc2cccc(Cl)c2c1=O
8 | in the range around 5.5 µM | C[C@H](NC(=O)c1c(N)nn2cccnc12)c1cc2cccc(Cl)c2c(=O)n1-c1ccccc1F
9 | in the range around 5.5 µM | C[C@H](NC(=O)c1c(N)nn2cccnc12)c1cc2cccc(Cl)c2c(=O)n1-c1ccccc1O
10 | in the range around 5.5 µM | C[C@H](NC(=O)c1c(N)nn2cccnc12)c1cc2cccc(Cl)c2c(=O)n1CCS(N)(=O)=O
11 | in the range around 5.5 µM | C[C@H](NC(=O)c1c(N)nn2cccnc12)c1cc2cccc(Cl)c2c(=O)n1CCc1noc(C(C)(C)C)n1
12 | in the range around 5.5 µM | C[C@H](NC(=O)c1c(N)nn2cccnc12)c1cc2cccc(Cl)c2c(=O)n1-c1ccc(O)cc1
13 | in the range around 5.5 µM | C[C@H](NC(=O)c1c(N)nn2cccnc12)c1cc2cccc(Cl)c2c(=O)n1C1CC(NS(C)(=O)=O)C1 (stereo partly specified)
14 | in the range around 5.5 µM | C[C@H](NC(=O)c1c(N)nn2cccnc12)c1cc2cccc(Cl)c2c(=O)n1CCCS(C)(=O)=O
15 | in the range around 5.5 µM | CCS(=O)(=O)NCCn1c([C@H](C)NC(=O)c2c(N)nn3cccnc23)cc2cccc(Cl)c2c1=O
16 | in the range around 5.5 µM | C[C@H](NC(=O)c1c(N)nn2cccnc12)c1cc2cccc(Cl)c2c(=O)n1-c1cccc(O)c1
17 | in the range around 5.5 µM | C[C@H](NC(=O)c1c(N)nn2cccnc12)c1cc2cccc(Cl)c2c(=O)n1CCc1ncn[nH]1
18 | in the range around 5.5 µM | C[C@H](NC(=O)c1c(N)nn2cccnc12)c1cc2cccc(Cl)c2c(=O)n1CCc1nnn[nH]1
19 | in the range around 5.5 µM | C[C@H](NC(=O)c1c(N)nn2cccnc12)c1cc2cccc(Cl)c2c(=O)n1CCc1ccccc1
20 | in the range around 5.5 µM | C#CCCn1c([C@H](C)NC(=O)c2c(N)nn3cccnc23)cc2cccc(Cl)c2c1=O
21 | in the range around 5.5 µM | Cc1ccc(-n2c([C@H](C)NC(=O)c3c(N)nn4cccnc34)cc3cccc(Cl)c3c2=O)cc1
22 | in the range around 5.5 µM | C[C@H](NC(=O)c1c(N)nn2cccnc12)c1cc2cccc(Cl)c2c(=O)n1C1CCC1
23 | in the range around 0.75 µM | C[C@H](NC(=O)c1c(N)nn2cccnc12)c1cc2cccc(Cl)c2c(=O)n1CCCNS(C)(=O)=O
24 | in the range around 5.5 µM | C[C@H](NC(=O)c1c(N)nn2cccnc12)c1cc2cccc(Cl)c2c(=O)n1Cc1nnn[nH]1
25 | in the range around 5.5 µM | C[C@H](NC(=O)c1c(N)nn2cccnc12)c1cc2cccc(Cl)c2c(=O)n1-c1cccnc1
26 | in the range around 5.5 µM | C[C@H](NC(=O)c1c(N)nn2cccnc12)c1cc2cccc(Cl)c2c(=O)n1CCc1cnn[nH]1
27 | in the range around 5.5 µM | C[C@H](NC(=O)c1c(N)nn2cccnc12)c1cc2cccc(Cl)c2c(=O)n1CCc1nnnn1C
28 | in the range around 5.5 µM | Cc1noc(CCn2c([C@H](C)NC(=O)c3c(N)nn4cccnc34)cc3cccc(Cl)c3c2=O)n1

More lines, now with the values behind:

Row | SMILES | IC50
29 | C[C@H](NC(=O)c1c(N)nn2cccnc12)c1cc2cccc(OCc3cnn(C)c3)c2c(=O)n1-c1ccccc1 | in the range around 5.5 µM
30 | C[C@H](NC(=O)c1nccnc1N)c1nc2cccc(Cl)c2c(=O)n1-c1ccc(F)cc1 | in the range around 5.5 µM
31 | C[C@H](NC(=O)c1c(N)nn2cccnc12)c1nc2ccccc2c(=O)n1-c1ccccc1 | in the range around 5.5 µM
32 | C[C@H](NC(=O)c1c(N)nn2cccnc12)c1cc2cccc(CC(=O)C(C)(C)C)c2c(=O)n1-c1ccccc1 | in the range around 5.5 µM
33 | C[C@H](NC(=O)c1c(N)nn2cccnc12)c1nc2c(Cl)cccc2c(=O)n1-c1ccccc1 | in the range around 5.5 µM
34 | Cc1cccc2c(=O)n(-c3ccccc3)c([C@H](C)NC(=O)c3c(N)nn4cccnc34)nc12 | in the range around 5.5 µM
35 | Cc1ccnc2c(C(=O)N[C@@H](C)c3cc4cccc(Cl)c4c(=O)n3-c3ccccc3)c(N)nn12 | in the range around 5.5 µM
36 | CCn1cc(-c2cccc3cc([C@H](C)NC(=O)c4c(N)nn5cccnc45)n(-c4ccccc4)c(=O)c23)cn1 | in the range around 5.5 µM
37 | C[C@H](NC(=O)c1c(N)ncn2ccnc12)c1cc2cccc(Cl)c2c(=O)n1-c1ccccc1 | in the range around 5.5 µM
38 | C[C@H](NC(=O)c1c(N)nn2cccnc12)c1cc2cccc(OCC(F)(F)F)c2c(=O)n1-c1ccccc1 | in the range around 5.5 µM
39 | C[C@H](NC(=O)c1c(N)nn2cccnc12)c1cc2cccc(Cl)c2c(=O)n1-c1ccc(NS(C)(=O)=O)cc1 | in the range around 5.5 µM
40 | C[C@H](NC(=O)c1c(N)nn2cccnc12)c1nc2cccc(Cl)c2c(=O)n1-c1ccc(F)cc1 | in the range around 5.5 µM
41 | C[C@H](NC(=O)c1nccnc1N)c1oc2ccc(F)cc2c(=O)c1-c1ccccc1 | in the range around 5.5 µM
42 | CC(=O)Cc1cccc2nc([C@H](C)NC(=O)c3c(N)nn4cccnc34)n(-c3ccccc3)c(=O)c12 | in the range around 5.5 µM
43 | COc1ccccc1-n1c([C@H](C)NC(=O)c2c(N)nn3cccnc23)cc2cccc(Cl)c2c1=O | in the range around 5.5 µM
44 | C[C@H](NC(=O)c1c(N)nn2cccnc12)c1cc2cccc(-c3cnn(CC(F)(F)F)c3)c2c(=O)n1-c1ccccc1 | in the range around 5.5 µM
45 | C[C@H](NC(=O)c1c(N)nn2cccnc12)c1cc2cccc(Cl)c2c(=O)n1-c1ccccc1NS(C)(=O)=O | in the range around 5.5 µM
46 | C[C@H](NC(=O)c1c(N)nn2cccnc12)c1nc2ccc(Cl)cc2c(=O)n1-c1ccccc1 | in the range around 5.5 µM
47 | C[C@H](NC(=O)c1c(N)nn2cccnc12)c1oc2ccc(F)cc2c(=O)c1-c1ccccc1 | in the range around 5.5 µM
48 | C[C@H](NC(=O)c1c(N)nn2cccnc12)c1nc2cccc(Cl)c2c(=O)n1-c1ccc(F)c(F)c1 | in the range around 5.5 µM
49 | C[C@H](NC(=O)c1nccnc1N)c1cc2cccc(C(F)(F)F)c2c(=O)n1-c1ccccc1 | in the range around 5.5 µM
50 | C[C@H](NC(=O)c1c(N)nn2cccnc12)c1cc2cccc(Cl)c2c(=O)n1-c1ccc(S(C)(=O)=O)cc1 | in the range around 5.5 µM
51 | C[C@H](NC(=O)c1c(N)nn2cccnc12)c1nc2cccc(N3CCOCC3)c2c(=O)n1-c1ccccc1 | in the range around 5.5 µM
52 | C[C@H](NC(=O)c1c(N)nn2cccnc12)c1cc2cccc(Cl)c2c(=O)n1-c1cccc(S(C)(=O)=O)c1 | in the range around 5.5 µM
53 | C[C@H](NC(=O)c1c(N)nn2cccnc12)c1cc2cccc(Cl)c2c(=O)n1-c1cccc(NS(C)(=O)=O)c1 | in the range around 5.5 µM
54 | C[C@H](NC(=O)c1nc(C2CC2)cnc1N)c1cc2cccc(Cl)c2c(=O)n1-c1ccccc1 | in the range around 5.5 µM
55 | C[C@H](NC(=O)c1c(N)nn2cccnc12)c1cc2cccc(-c3cnn(CC#N)c3)c2c(=O)n1-c1ccccc1 | in the range around 5.5 µM
56 | CC(C)C(=O)Cc1cccc2cc([C@H](C)NC(=O)c3c(N)nn4cccnc34)n(-c3ccccc3)c(=O)c12 | in the range around 5.5 µM
